Source: patent publication US20030134264A1, “Method of preventing darkening of skin or inhibiting melanization of melenin monomer and polymerization inhibitor of biological dihydroxyindole compound” (SHISEIDO COMPANY, LTD., priority 2001, published 2003)

Assay: Inhibition of melanization of DHICA by ultraviolet rays (absorbance at 405 nm, microplate)
Conditions: FL-20BLB fluorescent lamp, long wavelength UV, absorbance 405 nm
Experimental: DHICA can be synthesized by a known method. 0.01 to 1.0 mg/ml of DHICA or its sodium salt is dissolved in water or a buffer such as phosphate buffer and 100 to 200 μl amounts distributed into microplate wells. A fluorescent lamp or solar simulator or monochrometer is used to irradiate this with ultraviolet rays for 10 minutes to 3 hours, then the absorbance at 405 nm is measured by a microplate reader to evaluate the amount of black-brown melanin.
0.01 to 1.0 mg/ml of DHICA or its sodium salt is dissolved in water or a buffer such as a phosphate buffer and 100 to 200 μl amounts distributed into microplate wells. Compounds or plant extracts prepared at various concentrations are added in 1 to 100 μl amounts or before addition a fluorescent lamp or solar simulator or monochrometer is used to irradiate this with ultraviolet rays for 10 minutes to 3 hours, then the absorbance of 405 nm is measured by a microplate reader to evaluate the extent of black-brown melanin and evaluate the effect of the compound or plant extract.
The action of an inhibitor containing vitamin C and its derivatives as effective ingredients in inhibiting melanization of DHICA due to ultraviolet rays was evaluated by the following effect of inhibition of melanization of DHICA due to ultraviolet rays.
(§1) 0.01 to 1.0 mg/ml of DHICA or its sodium salt is dissolved in water and 100 μl amounts distributed into microplate wells. 100 μl of ascorbic acid or its derivative adjusted to various concentrations was added and an FL-20BLB fluorescent lamp used to irradiate long wavelength ultraviolet rays. The absorbance at 405 nm was measured by a microplate reader to evaluate the amount of black-brown melanin and evaluate the effect of the compound.
as §1, with “The action of an inhibitor containing 3-O-ethyl ascorbic acid as effective ingredients in inhibiting melanization of DHICA due to ultraviolet rays was evaluated by the following effect of inhibition of melanization of DHICA due to ultraviolet rays. 0.01” for “0.01”, “the extent” for “the amount”

Structure (SMILES) | Rate of inhibition of UV-introduced melanization of DHICA (%) (sample concentration 0.01%) | Rate of suppression of UV-induced melanization of DHICA (%) (sample concentration 0.01%) | Rate of inhibition of UV-introduced melanization of DHICA (%) (sample concentration 0.1%) | Rate of suppression of UV-induced melanization of DHICA (%) (sample concentration 0.1%)
CCOC1=C(O)C(=O)O[C@@H]1[C@@H](O)CO [3-O-ethyl ascorbic acid] | 40 | 40 | 80 | 80
O=C1O[C@H]([C@@H](O)CO)C(O)=C1O[C@H]1O[C@H](CO)[C@@H](O)[C@H](O)[C@H]1O [AA-2G, Ascorbate-2-O-α-glucoside] | – | – | 20 | 20
O=C1O[C@H]([C@@H](O)CO)C([O-])=C1OP(=O)([O-])[O-].O=C1O[C@H]([C@@H](O)CO)C([O-])=C1OP(=O)([O-])[O-].[Mg+2].[Mg+2].[Mg+2] [APM, Magnesium ascorbate phosphate ester] | – | – | 20 | –
O=C1O[C@H]([C@@H](O)CO)C(O)=C1O [Ascorbic acid] | – | – | 70 | 70
